Experiment [1] has as its system rat. Put plainly: Rat 5% formalin paw s.c. The format is in vivo. The following applies: p.o., read-out: Analgesia ED50. The protocol: (§1) Two species of animals (mice and rats) and four types of pain testing models (i.p. 0.7% acetic acid, s.c. 5% formalin, hot plate 55° C., focused radiant heat) were used.
The subject of experiment [2] is rat. Put plainly: Rat tail flick model (focused radiant heat). The format is in vivo. As to conditions: po, read-out: Analgesia ED50.
A further experiment has as its system Kunming mice. Put plainly: Mice writhing model (acetic acid). The format is in vivo. As to conditions: Mus musculus, po; Mice; Acetic acid Writhing; read-out: Analgesia ED50. In a few lines:
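Mixed-sex mice received test compound at 20 mg/Kg i.p.; controls received saline p.o. (20 ml/Kg). Thirty minutes later 0.7% acetic acid (10 mg/kg i.p.) was injected, and writhes were counted over 5 minutes. Inhibition ratio was calculated relative to control.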

Experiment [3] deals with rat. Put plainly: animal or person. As to conditions: Rattus norvegicus, po, read-out: Analgesia ED50. As to the method:
Using 55° C. hot plate pain threshold detector (available from Ninghai Baishi Electronic Medical Instrument Co., Zheijiang, China) the threshold change before and after administration of a pharmaceutical composition of the present invention is tested. […] hind paw was scrubbed with alcohol cotton ball before the experiment. The regular pain threshold was tested twice for each rat, the induced hind paw licking time being recorded as the pain threshold. Measurements were made at 20-30 minute intervals. Only rats with stable pain reaction were used in the pharmaceutical test.
as §1

As usually defined, the ED50 is the dose that gives a 50% effect, or the effect in half of the subjects. Regarding `CC(=O)Oc1ccccc1C(=O)O` [Aspirin, reference compound], the ED50 in the experiment on rat [1] was 2310 mg/kg; in the experiment with rat [2] it was greater than 5000 mg/kg; in the experiment on Kunming mice, 348 mg/kg; in the experiment with rat [3], 843 mg/kg.

Source of the values: patent US7332495B2 (priority 2002, dated 2008).
